PMC6385242, “Identification and characterization of a factor Va-binding site on human prothrombin fragment 2” (Scientific Reports, 2019)
One block for each substance: values may come before it.

Tests used:
[1] = molecular target: T1, prothrombinase (FXa/FVa/PCPS), prothrombin activation (Homo sapiens, UniProt P00742+P12259); assay: Relative rate of prothrombin activation with F2-derived peptides (screen, Fig. S1); format: biochemical; details: peptide 0, 50, 200, 500 μM; 300 nM prothrombin, 5 mM CaCl2, 3 μM DAPA, 50 μM PCPS, 5 nM FVa, 0.05 nM FXa
T1 construct: purchased Haematologic Technologies, Inc (FXa, FVa); Enzyme Research Laboratories (prothrombin)
T1 sequence (P12259 29-737 limits assumed): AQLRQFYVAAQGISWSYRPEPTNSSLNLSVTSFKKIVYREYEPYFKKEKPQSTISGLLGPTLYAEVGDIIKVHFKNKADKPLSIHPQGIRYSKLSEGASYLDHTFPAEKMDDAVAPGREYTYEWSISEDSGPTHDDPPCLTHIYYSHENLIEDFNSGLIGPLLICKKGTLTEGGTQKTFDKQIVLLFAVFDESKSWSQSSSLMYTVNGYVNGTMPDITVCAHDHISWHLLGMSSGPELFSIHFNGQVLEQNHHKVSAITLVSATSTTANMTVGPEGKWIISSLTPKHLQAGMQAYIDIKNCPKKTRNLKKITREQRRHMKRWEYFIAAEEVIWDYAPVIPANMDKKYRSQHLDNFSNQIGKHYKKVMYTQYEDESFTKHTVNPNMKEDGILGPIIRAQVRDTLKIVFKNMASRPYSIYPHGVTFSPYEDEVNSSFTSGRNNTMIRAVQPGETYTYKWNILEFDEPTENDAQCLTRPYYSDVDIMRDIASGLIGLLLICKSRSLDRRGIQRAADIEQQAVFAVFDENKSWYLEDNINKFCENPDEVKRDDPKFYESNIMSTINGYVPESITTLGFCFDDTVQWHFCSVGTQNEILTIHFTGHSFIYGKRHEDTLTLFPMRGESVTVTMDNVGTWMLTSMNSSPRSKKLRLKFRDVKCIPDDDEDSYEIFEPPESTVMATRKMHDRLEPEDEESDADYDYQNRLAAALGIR
T1 sequence (P12259 1574-2224 limits assumed): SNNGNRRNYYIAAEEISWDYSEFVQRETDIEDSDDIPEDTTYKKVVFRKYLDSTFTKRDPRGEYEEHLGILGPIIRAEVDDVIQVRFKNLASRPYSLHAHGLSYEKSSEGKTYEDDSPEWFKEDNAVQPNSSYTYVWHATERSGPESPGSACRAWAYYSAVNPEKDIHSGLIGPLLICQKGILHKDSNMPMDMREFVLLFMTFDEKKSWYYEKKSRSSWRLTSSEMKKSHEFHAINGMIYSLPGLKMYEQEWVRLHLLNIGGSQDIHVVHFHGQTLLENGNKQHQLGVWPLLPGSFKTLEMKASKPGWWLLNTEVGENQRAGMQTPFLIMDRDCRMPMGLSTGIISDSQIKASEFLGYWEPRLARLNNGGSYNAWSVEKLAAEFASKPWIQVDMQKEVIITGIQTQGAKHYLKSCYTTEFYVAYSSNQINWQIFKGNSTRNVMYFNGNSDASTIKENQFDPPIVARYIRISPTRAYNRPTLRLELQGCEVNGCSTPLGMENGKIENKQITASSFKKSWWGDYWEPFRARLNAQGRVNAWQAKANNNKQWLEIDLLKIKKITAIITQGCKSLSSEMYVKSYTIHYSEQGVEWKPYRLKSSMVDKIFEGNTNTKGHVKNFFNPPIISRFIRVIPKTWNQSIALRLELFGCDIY
T1 sequence (P00742 41-179 partner limits assumed): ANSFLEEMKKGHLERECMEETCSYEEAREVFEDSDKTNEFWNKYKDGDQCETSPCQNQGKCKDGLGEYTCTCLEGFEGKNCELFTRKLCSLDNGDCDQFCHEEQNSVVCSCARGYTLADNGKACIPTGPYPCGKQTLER
T1 sequence (P00742 235-488 partner limits assumed): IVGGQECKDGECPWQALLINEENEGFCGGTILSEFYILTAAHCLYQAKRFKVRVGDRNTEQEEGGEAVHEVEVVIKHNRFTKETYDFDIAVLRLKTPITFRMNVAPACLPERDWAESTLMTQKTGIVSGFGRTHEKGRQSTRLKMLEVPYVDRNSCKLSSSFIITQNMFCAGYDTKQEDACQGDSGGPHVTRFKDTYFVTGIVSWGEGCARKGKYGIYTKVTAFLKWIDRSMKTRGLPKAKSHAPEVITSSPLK
Method: (§1) Reactions were started with addition of FXa (0.1 nM), and monitored in SpectraMax Gemini fluorescence plate reader (Molecular Devices, Sunnyvale, California) at excitation and emission wavelengths of 280 nm and 545 nm, respectively, with a 530 nm emission cut off filter in the emission beam at 25 °C. In the absence of FVa, reactions were carried out as described above; however, the reactions were started with the addition of 20 nM FXa. The Ki values were estimated using the Cheng-Prusoff equation (IC50 = [1 + ([S]/KM)] Ki) based on the IC50 values obtained by nonlinear regression of a rectangular hyperbola, whereby [S] is the prothrombin concentration and KM is the Michaelis constant of prothrombinase for prothrombin determined in a separate experiment as described previously.
Figure S1. Relative rate of prothrombin activation in the presence of each of the peptides at various concentrations. Initial rates of prothrombin activation were determined from reactions containing 300 nM prothrombin. 5 mM CaCl2, 3 μM DAPA, 50 μM PCPS, 5 nM FVa and 0.05 nM FXa. Relative rates of prothrombin activation are shown for each concentration of peptide at […]
(1 picture or pasted object on this page, not shown here)

[2] = tested on: FXa/PCPS, prothrombin activation; assay: Inhibition of FXa-mediated prothrombin activation by F2-derived peptides in the absence of FVa; format: biochemical, human; details: 300 nM prothrombin, 5 mM CaCl2, 5 μM DAPA, 50 μM PCPS, 20 nM FXa
Method: Figure 3 Inhibition of FXa-mediated prothrombin activation by synthetic peptides derived from F2. […] Reactions were started by addition of 20 nM FXa. […] Reactions were initiated by addition of 0.1 nM FXa. Non-linear regression analysis was carried out to determine the IC50 and the apparent Ki was calculated using the Cheng-Prusoff equation.
as §1

[3] = pH 7.4
prothrombinase = details: cited from earlier work
Excerpt: It has been widely accepted that FVa alone increases the rate of thrombin generation by 3 orders of magnitude while the membrane surface alone increases the catalytic efficiency of thrombin generation by 2 orders of magnitude, which together increases its catalytic efficiency by 5 orders of magnitude. These individual contributions of the prothrombinase components toward overall thrombin generation, however, were not observed in our experiments (Table 1). […] The 5-orders of magnitude ...

[4] = tested on: F2 (prothrombin fragment 2); assay: HSQC NMR of 15N-labeled F2 with thrombin or thrombin-derived peptide; format: binding, human; details: F2:peptide ratio as printed
Method: Uniform ^15N and ^13C/^15N isotopic labeling of F2 was achieved as described previously. Once labeled, F2 preparations prepared and pH adjusted, 25 μL of D2O was added to the protein solution to provide the NMR deuterium lock signal. For the titration experiments, small aliquots of the FVa-HC or FPRck-thrombin, both in 2 mM HEPES, 50 mM sodium phosphate buffer, pH 7, were added to samples of ^15N-labeled F2 up to a molar ratio of ~10:1. […]
All NMR experiments were carried out at 35° C on a Bruker Avance500 or an Avance800 spectrometer equipped with triple-resonance (^1H, ^13C, and ^15N) and three-axis gradient probes. Two-dimensional and three-dimensional NMR data collected for ^15N- and ^13C/^15N-labeled F2 included ^1H-^15N HSQC, HNCO, HN(CA)CO, HNCA, HN(CO)CA, CBCA(CO)NH and HNCACB[57]–[59]. Water suppression was achieved using the WATERGATE method with a 3:9:19 selective pulse incorporated in all the three-dimensional pulse sequences. […]
synthesized a peptide corresponding to residues 91- 101 of human thrombin with two cysteine residues added to form a disulfide bond between the N- and C-terminal en ds of the p eptide (s ee Experimental Procedures). […] Potential binding of the thrombin- derived peptide with F2 was monitored by the 1H-15N HSQC spectra of 15N-labeled F2 with a F2:peptide ratio of 3:1. […]

[5] = tested on: F2 (prothrombin fragment 2); details: thrombin/F2 molar ratios 1:30 to 1:10; clusters Asp68–Lys81 and Ala96–Asp108; ref (9) Koutychenko, A. (2002); cited from earlier work
Excerpt: page 3: plasma-derived material, indicating purity and functional integrity of the recombinant F2 protein (9). […] Not abl y, there were two upfield -shifted meth yl proton resonances, which are common for a conserved Leu residue in all kringle domains (10 –12) .

- dose-dependent inhibition of prothrombin activation [1]: did not
Substance: DLNYS*EEAVEEETG [F2P7, F2-derived peptide, prothrombin residues 244-257, cysteine changed to serine]

Substance: EGSSVNLSPPLE [F2P1, F2-derived peptide, prothrombin residues 157-168]
- inhibition of prothrombin activation in the absence of FVa [2]: inhibited prothrombin activation
- dose-dependent inhibition of prothrombin activation [1]: inhibited prothrombin activation in a dose-dependent manner

- solubility [3]: not soluble
Substance: LAWASAQAKALSKH [F2P4]

- dose-dependent inhibition of prothrombin activation [1]: did not
Substance: YVAGKPGDFGY [F2P6, F2-derived peptide, prothrombin residues 232-242]

Substance: FVa: factor Va, protein cofactor of prothrombinase
- increase in rate of thrombin generation by FVa alone (prothrombinase): 3 orders of magnitude

Substance: CH91PRYNWRENLDR101C (disulfide) [thrombin-derived peptide, residues 91-101 in the B-chain of human thrombin with two Cys residues added, cyclic]
- chemical shift changes in 15N-F2 versus intact thrombin [4]: smaller chemical shift changes

- solubility [3]: not soluble
Substance: QDFNSAVQLVEN [F2P5]

Substance: thrombin
- perturbed HSQC peaks of 15N-F2 [5]: two major clusters

Substance: DGLDEDSDRAIEGR [F2P8, F2-derived peptide, prothrombin residues 258-271]
- inhibition of prothrombin activation in the absence of FVa [2]: inhibited prothrombin activation
- dose-dependent inhibition of prothrombin activation [1]: inhibited prothrombin activation in a dose-dependent manner
